Reference: PubChem BioAssay AID179 (DTP/NCI, 2004)
Active and inactive are the calls of the source.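 Rule for the calls: active = compounds giving half or more protection of infected cells from virus-caused growth loss, again on retest; inactive = the rest.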

Test system: CEM cells HIV-1 protection, formazan growth assay
Assay: NCI AIDS Antiviral Assay
Conditions: for IC50: measured here: growth of uninfected CEM cells
Procedure, shortened: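 Protection of CEM cells against HIV-1 was scored from cell growth (soluble formazan) across five concentrations, with parallel uninfected cells. Lack of protection may reflect toxicity.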

| SMILES | EC50 [µM] | IC50 [µM] | outcome |
| --- | --- | --- | --- |
| CC(=O)OC1CCC2(C)C(C1)CC(OC(C)=O)C1C2CC(OC(C)=O)C2(C)C(C(C)CC(=O)C(=O)c3ccccc3)CCC12 (stereo unspecified) | > 6.17 | 2.63 |  |
| O=c1c(O)c(-c2ccccc2)oc2ccccc12.[Zn+2] | > 200 | 13.2 |  |
| CCCCc1ccc(Nc2nc3c(ncn3COCCBr)c(=O)[nH]2)cc1 | > 200 | > 200 |  |
| CCCCCCCCCCCCCCCCCCOC(CO)COP(=O)(O)OCC1OC(n2cc(C)c(=O)[nH]c2=O)CC1F (stereo unspecified) | 0.00155 | 2 |  |
| CCOC1=NC(O)c2cccn2-c2sccc21 (stereo unspecified) | > 200 | 126 |  |
| O=[N+]([O-])c1cc([N+](=O)[O-])c(/C=C/c2ccc(Cl)c(Cl)c2)cc1/C=C/c1ccc(Cl)c(Cl)c1 | > 19.5 | > 19.5 |  |
| COC(=O)C(Cc1ccc2c(c1)OCO2)(NC(=O)c1ccccc1)P(=O)(OC)OC (stereo unspecified) | > 575 | > 575 |  |
| COc1ccc2[nH]c3c(C)c4cc[n+](C)cc4c(C)c3c2c1 | > 20 | 0.417 |  |
| O=c1[nH]c2ncsc2c(=O)n1O | > 200 | 5.01 |  |
| Cc1[nH]c(=O)nc2[nH][nH]c(=O)c12 |  |  | inactive |
| N#Cc1sc2c(c1OC(=O)c1cccs1)c(=O)n(-c1ccccc1)c(=S)n2-c1ccccc1 | > 200 | 6.03 |  |
| O=[N+]([O-])c1ccccc1S(=O)NCc1c(Cl)cccc1Cl (stereo unspecified) | > 200 | > 200 |  |
| CC1=Nc2ccccc2N=C(c2c(O)c3ccc4ccccc4c3oc2=O)C1 | > 200 | 49 |  |
| C(=C(c1ccc(OC2CCCCO2)cc1)c1ccc(OC2CCCCO2)cc1)c1ccccc1 (stereo unspecified) | > 2 | 1.12 |  |
| O=C(CCN1CCC(CCO)CC1)Nc1ccc2c(c1)C(=O)c1ccc(NC(=O)CCN3CCC(CCO)CC3)cc1C2=O | > 200 | 43.7 |  |
| Cc1cc(NS(=O)(=O)c2ccc(Nc3c4ccccc4nc4ccc(C(=O)Nc5ccc(S(N)(=O)=O)cc5)cc34)cc2)no1 | > 200 | 110 |  |
| OC1=CN=C(C2CC2)Oc2ccccc21 | > 178 | 117 |  |
| Cc1ccc(NC(=O)CCC(=O)C2CC(=O)CC/C2=N\NC(=O)c2cc3ccccc3cc2O)cc1C (stereo unspecified) | > 363 | 12.9 |  |
| Cc1[nH]c(=O)nc2nc3cc(Cl)cc(Cl)c3c(NC(C)(CO)CO)c12 | > 200 | > 200 |  |
| Cc1c(O)c(OC2OC(CO)C(O)C(O)C2O)cc2c1CC[C@@H]1C2(C)C(=O)C[C@]2(C)[C@@H]([C@@](C)(O)C(O)/C=C/C(C)(C)O)[C@H](O)C[C@@]12C (stereo partly specified) | > 200 | > 200 |  |
| Cc1ccc2c(c1)C(=O)N(CC[P+](c1ccccc1)(c1ccccc1)c1ccccc1)C2=O | > 200 | 30.9 |  |

| SMILES | EC50 [µM] | IC50 [µM] | outcome |
| --- | --- | --- | --- |
| C=CCCCN1C(=O)C2C3c4ccccc4C(C=O)(c4ccccc43)C2C1=O (stereo unspecified) | > 200 | 7.24 |  |
| CC(C)C(=Nc1ccc(Cl)c(Cl)c1)N(C)C | > 200 | > 100 |  |
| CCOC(=O)c1cn(C)c2c1C(=O)C(C(=O)OCC)CC(=O)N2 (stereo unspecified) | > 288 | 178 |  |
| C/C(=N/N)c1sc(-c2nc(C)c(/C(C)=N\N)s2)nc1C | > 61.7 | > 61.7 |  |
| C=C1C(=O)OC2C1CC[C@H](C)C13OC(=O)CC1[C@@]23C (stereo partly specified) |  |  | inactive |
| O=C(O)[C@@H]1CCCC[C@@H]1C(=O)N(C1CCCCC1)C1CCCCC1 | > 77.6 | > 77.6 |  |
| CCCCCCCCCC=C(c1cc(Br)c(OC)c(C(=O)OC)c1)c1cc(Br)c(OC)c(C(=O)OC)c1 | > 29.5 | > 29.5 |  |
| O=S(=O)(Oc1cccc2ccccc12)C(F)(F)F | > 200 | 120 |  |
| COC(OC)c1cccc2c1C(=O)CCC1(CC2)OCCCCO1 | > 200 | > 200 |  |
| COc1cc(-c2oc3c(Cl)cc(Cl)cc3c(=O)c2O)cc(OC)c1OC | > 200 | 38 |  |
| Cc1ccc(S(=O)(=O)[N-]C2C(=O)c3ccccc3C(=O)C2[n+]2cccc(C(N)=O)c2)cc1 (stereo unspecified) | > 200 | > 200 |  |
| CO[C@@H]1[C@H](O)c2coc3c2[C@@](C)(c2ccc4c(c2C3=O)CCC4=O)[C@@H]1O | > 200 | 28.8 |  |
| CCOC(=O)C(=O)Nc1cccc(Cl)c1C | > 741 | > 741 |  |
| Cc1c(Cl)ccc2[s+]snc12 |  |  | inactive |
| C(=N\NC1=NCCCN1)/c1ccc2ccccc2c1 | > 200 | 8.32 |  |
| O=C1c2c(O)cccc2Cc2cccc(O)c21 |  |  | inactive |
| COc1cc(C2SC(N)=Nc3c2c(C)nn3C(=O)Cc2ccccc2)cc(OC)c1OC (stereo unspecified) | 49 | > 200 |  |
| C=CC(=O)N1C/C(=C\c2ccc(N(C)C)cc2)C(=O)/C(=C/c2ccc(N(C)C)cc2)C1 | > 200 | 60.3 |  |
| O=C(c1ccccc1)[C@H]1Nc2ccc(Cl)cc2[C@H]2OCCC[C@@H]12 | > 11.5 | > 11.5 |  |
| O=C(c1ccccc1)N1CCC(Nc2cccnc2)O1 (stereo unspecified) | > 200 | 105 |  |
| Cc1nc(C(N)=S)sc1C(=O)C/C(=N/N)C(=O)Nc1cccc(Cl)c1C | > 166 | > 166 |  |

| SMILES | EC50 [µM] | IC50 [µM] | outcome |
| --- | --- | --- | --- |
| Cc1nc2n(c1C(N)=O)CCS2 | > 200 | > 200 |  |
| C=C(C)C1Cc2c(cc3c(c2O)c(=O)c2ccccc2n3C)O1 (stereo unspecified) | > 200 | 1.17 |  |
| CCOC(=O)c1cccc2c(Nc3ccc(S(=O)(=O)Nc4cc(C)on4)cc3)c3ccccc3nc12 | > 200 | 25.1 |  |
| O=c1oc2ccc([N+](=O)[O-])cc2cc1Br | > 145 | > 145 |  |
| CC(=O)Oc1ccc(C[C@H]2COC(=O)[C@@H]2Cc2ccc(OC(C)=O)c(OC(C)=O)c2)cc1OC(C)=O | > 200 | 17.4 |  |
| CCN(CC)c1ccc2c(c1)Nc1cc(=C(C#N)C#N)c3ccccc3c1=N2 | > 19.5 | > 19.5 |  |
| NC(=S)C(=S)N/C=C/c1nc2ccccc2[nH]c1=O | > 200 | 7.94 |  |
| CCCCCC(C)(O)C1=NCCN1 (stereo unspecified) | > 200 | > 200 |  |
| CCc1nnc(-c2nsc3ccccc23)s1 | > 145 | 126 |  |
| Cc1ccc(C)n1-c1ccccc1C1SCCCS1 | > 200 | 195 |  |
| CC(C(N)=O)N(C)C(=O)c1cc2ccccc2[n+](Cc2ccccc2)c1 (stereo unspecified) |  |  | inactive |
| O=S(=O)(O)CN(CCN(CS(=O)(=O)O)CS(=O)(=O)O)CS(=O)(=O)O | > 200 | 20.4 |  |
| CC1(Cl)C2c3ccccc3C(c3ccccc32)C1(C)Cl (stereo unspecified) | > 24 | > 24 |  |
| O=S(=O)(O)Oc1cc2c(c(OS(=O)(=O)O)c1)C[C@H](OS(=O)(=O)O)[C@@H](c1ccc(OS(=O)(=O)O)c(OS(=O)(=O)O)c1)O2 | 91.2 | 174 |  |
| COc1ccc(-c2nc(-c3cnccn3)n(C/C=C/c3ccccc3)n2)cc1 | 64.6 | > 200 |  |
| O=C(O)C(=O)O.[NH-]C1CCCC1[NH-].[Pt+2] (stereo unspecified) | > 200 | 9.55 |  |
| CN1C2CCC1C(C(=O)O)C(O)C2 (stereo unspecified) | > 200 | > 200 |  |
| CC1CCCC/C1=N/NS(=O)(=O)c1ccc(N)cc1 (stereo unspecified) | > 240 | > 240 |  |
| CNc1ccc(S(=O)Nc2ccccc2)cc1 (stereo unspecified) | > 200 | 93.3 |  |
| COC(=O)C1=C(O)C(O)=C(C(=O)OC)C1 | 407 | 955 |  |
| O=C(NCCO)c1c(O)c2ccccc2[nH]c1=O | > 200 | > 200 |  |
